This is an account of results in patent publication US9161951B2, “Parenteral nutrition composition containing iron” (priority 2005, dated 2015).

For series [1] the following is noted: patients receiving TPN, 87.5-175 mg/week iron i.v., 3 week period; cited from earlier work.
The conditions of series [2]: single parenteral nutrition component; cited from earlier work.
For series [3] the following is noted: in vivo; cited from earlier work.
The subject of another series is iron deficiency anemia. The conditions noted are these: 15 mg in PN admixture i.v. over 6 hours every day, 3 months. The source says: A patient with a history of bowel resection, secondary to inflammatory bowel disease is currently receiving TPN therapy at home. The patient develops iron deficiency anemia, secondary to ongoing bloody diarrhea and malabsorption of iron. The patient is unable to take iron supplements by mouth due to bloating and diarrhea.

Take iron dextran: the “effect on serum iron levels” value in series [1] is given as “effectively raised serum iron levels”. Take `O=C([O-])CC(O)(CC(=O)O)C(=O)[O-].[Fe+2]` [ferrous citrate]: in series [2], the “duration of compatibility with amino acid solution” value was 1 days.

`O=P([O-])([O-])OP(=O)([O-])[O-].[Sn+2].[Sn+2]` [stannous pyrophosphate]: in series [3], the reported adverse effects entry is “cause hypocalcemia and immediate toxic effects”.

As for “soluble ferric pyrophosphate [soluble FePPi]”, in the series with iron deficiency anemia, the “correction of iron deficiency anemia” value was “effectively corrects iron deficiency anemia”.
